Experimental findings from patent publication US9200046B2, “Reporter system for high throughput screening of compounds and uses thereof” (priority 2011, dated 2015) are described below.

The test system of assay [1] is Neh2-luciferase fusion protein in SH-SY5Y cells. It is filed as cell-based, human. The conditions noted are these: for lag-period of reporter activation: time-course of Neh2-luc activation. On the procedure: Cells were plated at the density of 25,000 cell per well using a WellMate multichannel dispenser from Matrix (Thermo Fisher Scientific) and grown overnight on DMEM/F12+GlutaMAX (100 μl per well). Then the inhibitor was added, and the plates were incubated for a fixed time interval; the medium was removed, cells lysed in 20 μL (out of which 4 μL were taken for protein measurement), then BrightGlo™ reagent (Promega) was added to the wells and luciferase activity measured on a luminometer Lmax11384 (Molecular Devices). The reporter activation was normalized to the background luminescence divided by protein concentration. Kinetics of reporter activation were measured by adding varied fixed concentrations of an inhibitor at different time points followed by simultaneous cell lysis, protein determination, and luciferase activity measurement in the whole 96-well plate; this assay format minimizes experimental error originating from the well-known instability of luciferase reagent.

The target of the next assay is T1, FLAG-Keap1 (Homo sapiens, UniProt Q14145).
T1 construct: expressed in transfected cells; host or cells: HEK293 (transient expression)
It is filed as cell-based. As for the experimental part:
FIG. 12. Supporting to FIG. 5. […] A: structural formulas of the compounds used; B: competition with Keap1 labeling. HEK293 cells transiently expressing FLAG-Keap1 were incubated with 200 μM competing compounds (sulforaphane, fisetin, quercetin, gedunin, TBHQ, ciclopirox, geldanamycin) and then further incubated with 10 μM sulfoxythiocarbate-alkyne (STCA) for 30 min at 37° C. FLAG-Keap1 was immunoprecipitated from cell lysates, subjected to click reaction with biotin azide on beads, and eluted with SDS-loading buffer. […] All values are presented as mean±SEM.
Keap1 labeling experiments were performed as described previously (AHN et al., Proc. Natl. […]. USA., 107: 9590-9595 (2010)) with following modifications. HEK293 cells transiently expressing FLAG-Keap1 were incubated with 200 μM competing compounds (sulforaphane, fisetin, quercetin, gedunin, TBHQ, ciclopirox, geldanamycin) in serum-free DMEM for 1 h. After washing with PBS, cells were further incubated with 10 μM sulfoxythiocarbate-alkyne (STCA) for 30 min at 37° C. FLAG-Keap1 was immunoprecipitated from cell lysates, subjected to click reaction with biotin azide on beads, and eluted with SDS-loading buffer. Eluted samples were immunoblotted with Streptavidin-HRP (Pierce) and anti-FLAG antibodies (Sigma).

Another assay has as its target Nrf2-Keap1 complex (Homo sapiens, UniProt Q14145). The assay can be described thus: cell-based. It is filed as cell-based. The conditions noted are these: for activation at 16 µM / activation at 32 µM: 3 h; for activation at 16 µM: read-out: Activation 100 nL; for activation at 32 µM: read-out: Activation 200 nL.
[2] abbreviates: 200 μM competing compound, HEK293 cells, then 10 μM STCA 30 min.
[3] abbreviates: Table 2, 100 nL compound, screen run at 16 and 32 μM, 3 hr.
Setting [4] is: Table 2, 200 nL compound, screen run at 16 and 32 μM, 3 hr.

“Also recorded” adds a separate entry of the source. Read-outs that look alike come from different tables or passages of the source.

T1 sequence (Q14145 whole entry): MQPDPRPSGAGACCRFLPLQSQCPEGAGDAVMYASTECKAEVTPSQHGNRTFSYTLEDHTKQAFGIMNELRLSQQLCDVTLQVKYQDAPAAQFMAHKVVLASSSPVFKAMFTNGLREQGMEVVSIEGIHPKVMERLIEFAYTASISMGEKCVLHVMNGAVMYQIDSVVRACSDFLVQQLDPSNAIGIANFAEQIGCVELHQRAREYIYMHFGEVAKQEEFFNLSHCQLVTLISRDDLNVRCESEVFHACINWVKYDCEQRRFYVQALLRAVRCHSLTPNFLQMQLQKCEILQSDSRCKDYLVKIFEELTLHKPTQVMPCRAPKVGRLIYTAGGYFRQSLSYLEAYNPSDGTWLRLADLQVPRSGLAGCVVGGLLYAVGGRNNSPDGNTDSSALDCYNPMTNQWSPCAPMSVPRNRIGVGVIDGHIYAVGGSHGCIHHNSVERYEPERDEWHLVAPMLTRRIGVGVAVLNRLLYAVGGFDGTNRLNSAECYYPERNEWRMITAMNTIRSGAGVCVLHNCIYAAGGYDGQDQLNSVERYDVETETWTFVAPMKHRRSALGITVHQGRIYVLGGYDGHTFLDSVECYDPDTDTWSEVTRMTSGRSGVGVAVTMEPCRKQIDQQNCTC
Nrf2-Keap1 complex, sequence (Q14145 whole entry, one chain of several): as the sequence (Q14145 whole entry) above

As to `C[S+]([O-])CCCCN=C=S` (stereo not shown) [sulforaphane, reference compound], the “type of reporter activation by time-course” value in assay [1] is listed as “immediate activation but gradual stabilization over time”. Moreover, at FLAG-Keap1, the “competition with Keap1 labeling by STCA” value is recorded as “decent competition; also recorded: inhibits Keap1 labeling completely”.
`Nc1ccccc1N` [oPD, ortho-phenylene diamine]: in assay [1], the “lag-period of reporter activation” value lay in the range of 40 to 50 min.
Regarding `Oc1ccccc1O` [catechol, o-catechol], the “lag-period of reporter activation” value in assay [1] was found to be 20 min.
`Cc1cc(C2CCCCC2)n(O)c(=O)c1` [ciclopirox, reference compound]: the “competition with Keap1 labeling by STCA” value at FLAG-Keap1 (setting [2]) is reported as “no competition with Keap1 labeling”.
Regarding `CC(=O)O[C@H]1C[C@@H](OC(C)=O)C(C)(C)[C@@H]2CC(=O)[C@]3(C)[C@H](CC[C@@]4(C)[C@H](c5ccoc5)OC(=O)[C@H]5O[C@]543)[C@@]12C` [7-DEACETOXY-7-OXOKHIVORIN], on Nrf2-Keap1 complex, the “Activation 100 nL” value is reported as 168% and the “Activation 200 nL” value is reported as 128%. In addition, the “100 nL (luminescence)” value on Nrf2-Keap1 complex (setting [3]) was 2924. Also, on Nrf2-Keap1 complex (setting [4]), the “200 nL (luminescence)” value was 2284.
With `COc1ccc2c(c1)OC/C(=C\c1ccc(OC)c(O)c1)C2=O` [SAPPANONEADIMETHYLETHER], on Nrf2-Keap1 complex, the activation at 16 µM amounted to 377% and the activation at 32 µM worked out at 110%. For the same molecule, on Nrf2-Keap1 complex (setting [3]), the “100 nL (luminescence)” value is recorded as 6124. On Nrf2-Keap1 complex (setting [4]), the “200 nL (luminescence)” value stood at 2008.
For `CCC(=O)O[C@H]1[C@H](O[C@@H]2[C@@H](C)[C@H](O[C@H]3C[C@@](C)(OC)[C@@H](O)[C@H](C)O3)[C@@H](C)C(=O)O[C@H](CC)[C@@](C)(O)[C@H](O)[C@@H](C)C(=O)[C@H](C)C[C@@]2(C)O)O[C@H](C)C[C@@H]1N(C)C` [ERYTHROMYCINESTOLATE, reference compound], at Nrf2-Keap1 complex, the activation at 16 µM came out at 31% and the activation at 32 µM worked out at 71%.
With `CC(C)=CCc1c2c(c(O)c3c(=O)c(O)c(-c4ccccc4)oc13)C=CC(C)(C)O2` [SERICETIN], at Nrf2-Keap1 complex, the activation at 16 µM was found to be 263% and the activation at 32 µM was found to be 20%. For the same molecule, on Nrf2-Keap1 complex (setting [3]), the “100 nL (luminescence)” value is on record as 2672. Moreover, at Nrf2-Keap1 complex (setting [4]), the “200 nL (luminescence)” value is 800.
`O=c1c(-c2ccccc2)coc2cc(O)cc(O)c12` [5,7-DIHYDROXYISOFLAVONE]: on Nrf2-Keap1 complex, the activation at 16 µM came out at 45% and the activation at 32 µM came to 58%. Besides, the “100 nL (luminescence)” value on Nrf2-Keap1 complex (setting [3]) is 964. Besides, on Nrf2-Keap1 complex (setting [4]), the “200 nL (luminescence)” value worked out at 1776.
Turning to “METHYL7-DESHYDROXYPYROGALLIN-4-CARBOXYLATE”, at Nrf2-Keap1 complex, the “Activation 100 nL” value was determined as 466% and the “Activation 200 nL” value is recorded as 147%. Besides, the “100 nL (luminescence)” value on Nrf2-Keap1 complex (setting [3]) is 4444. In addition, at Nrf2-Keap1 complex (setting [4]), the “200 nL (luminescence)” value is on record as 3792.
For the molecule `C[C@]12C=CC(=O)C=C1CC[C@@H]1[C@@H]2[C@@H](O)C[C@@]2(C)[C@H]1CC[C@]2(O)C(=O)CO` [PREDNISOLONE, reference compound], at Nrf2-Keap1 complex, the “100 nL (luminescence)” value stood at 864, the “200 nL (luminescence)” value is on record as 1452, the activation at 16 µM came to 42% and the activation at 32 µM was 53%.
With `COc1ccc(-c2coc3cc(O)ccc3c2=O)c(O)c1O` [KOPARIN], at Nrf2-Keap1 complex, the “Neh2-luc reporter activation” value is above 200%, the activation at 16 µM amounted to 223% and the activation at 32 µM was 11%. Also, at Nrf2-Keap1 complex (setting [3]), the “100 nL (luminescence)” value came to 3768. At Nrf2-Keap1 complex (setting [4]), the “200 nL (luminescence)” value was 492.
For the molecule `COc1c(O)cc2oc3cc(O)c(CC=C(C)C)c(O)c3c(=O)c2c1CC=C(C)C` [alpha-MANGOSTIN], at Nrf2-Keap1 complex, the “100 nL (luminescence)” value was determined as 736, the “200 nL (luminescence)” value amounted to 16, the “Activation 100 nL” value was 28% and the “Activation 200 nL” value is given as −19%.
Take `Nc1ncnc2c1ncn2[C@@H]1O[C@H](CO)[C@@H](O)[C@H]1O` [ADENOSINE, reference compound]: on Nrf2-Keap1 complex, the “100 nL (luminescence)” value is 1100, the “200 nL (luminescence)” value turned out to be 760, the “hit strength in the screen (words)” value was “modest hits” and the activation at 16 µM stood at 61%. The activation at 32 µM on Nrf2-Keap1 complex amounted to 20%.
`COC1=C2C[C@@H](C)C[C@H](OC)[C@H](O)[C@@H](C)/C=C(\C)[C@H](OC(N)=O)[C@@H](OC)/C=C\C=C(/C)C(=O)NC(=CC1=O)C2=O` [geldanamycin, reference compound]: the activation effect in assay [1] (in the range of 0.5-1.5 μM) is on record as 2-3 fold.
Regarding `COc1cccc(O)c1O` [3-METHOXYCATECHOL], on Nrf2-Keap1 complex, the activation at 16 µM amounted to 28% and the activation at 32 µM was -15%. In addition, at Nrf2-Keap1 complex (setting [3]), the “100 nL (luminescence)” value is 736. In addition, the “200 nL (luminescence)” value on Nrf2-Keap1 complex (setting [4]) worked out at 116.
As for `C[C@]12CCC(=O)C=C1C=C[C@@H]1[C@@H]2CC[C@@]2(C)[C@H]1CC[C@@]21CCC(=O)O1` [CANRENONE, reference compound], on Nrf2-Keap1 complex, the “100 nL (luminescence)” value is reported as 900, the “200 nL (luminescence)” value is 832, the activation at 16 µM came to 25% and the activation at 32 µM is 23%.
As to `COC(=O)c1c(C)cc(O)cc1O` [METHYLORSELLINATE], at Nrf2-Keap1 complex, the activation at 16 µM was 31% and the activation at 32 µM was determined as 1%. Besides, the “100 nL (luminescence)” value on Nrf2-Keap1 complex (setting [3]) came out at 640. For the same molecule, the “200 nL (luminescence)” value on Nrf2-Keap1 complex (setting [4]) is reported as 368.
On to `O=C(O)C(S)C(S)C(=O)O` (stereo not shown) [2,3-DIMERCAPTOSUCCINICACID, reference compound], for which, on Nrf2-Keap1 complex, the “100 nL (luminescence)” value is 4452, the “200 nL (luminescence)” value was 2760, the activation at 16 µM was found to be 238% and the activation at 32 µM worked out at 123%.
On to `O=C(CCBr)N1CCN(C(=O)CCBr)CC1` [PIPOBROMAN, reference compound], for which, at Nrf2-Keap1 complex, the “100 nL (luminescence)” value came to 1976, the “200 nL (luminescence)” value is reported as 3732, the activation at 16 µM was found to be 79% and the activation at 32 µM was 185%.
In the case of `COc1ccc(/C=C/C(=O)c2ccc(O)cc2O)cc1OC` [2′,4′-DIHYDROXY-3,4-DIMETHOXYCHALCONE], at Nrf2-Keap1 complex, the activation at 16 µM stood at 321% and the activation at 32 µM is 185%. Further, on Nrf2-Keap1 complex (setting [3]), the “100 nL (luminescence)” value worked out at 5876. Moreover, the “200 nL (luminescence)” value on Nrf2-Keap1 complex (setting [4]) was 3964.
Regarding AVOCADYNOFURAN, on Nrf2-Keap1 complex, the “Activation 100 nL” value came to 25% and the “Activation 200 nL” value amounted to 29%. The “100 nL (luminescence)” value on Nrf2-Keap1 complex (setting [3]) came to 582. Moreover, the “200 nL (luminescence)” value at Nrf2-Keap1 complex (setting [4]) was found to be 1008.
`O=c1c(O)c(-c2ccc(O)c(O)c2)oc2cc(O)cc(O)c12` [quercetin, 3,5,7,3′,4′-pentahydroxyflavone]: the “type of reporter activation by time-course” value in assay [1] is “immediate activation but gradual stabilization over time”. Moreover, the “competition with Keap1 labeling by STCA” value on FLAG-Keap1 (setting [2]) is “very modest competition”.
With `Cc1cc(O)ccc1Cl` [CHLOROCRESOL], on Nrf2-Keap1 complex, the activation at 16 µM was 25% and the activation at 32 µM was -5%.
Consider `CC(=O)OC1CC[C@@]2(C)C(CC[C@H]3[C@@H]4CC=C(C(C)=O)[C@@]4(C)C(=O)C[C@@H]32)C1` (stereo partly shown) [3-ACETOXYPREGN-16-EN-12,20-DIONE], for which, on Nrf2-Keap1 complex, the activation at 16 µM was determined as 214% and the activation at 32 µM was found to be 30%. The “100 nL (luminescence)” value on Nrf2-Keap1 complex (setting [3]) worked out at 2236. Further, the “200 nL (luminescence)” value at Nrf2-Keap1 complex (setting [4]) is reported as 1040.
